Results from US8987195B2 (priority 2012, dated 2015).
Like-named read-outs stand apart in the source and are kept apart here.

Legend:
[1] = target: HCV NS3/4A protease genotype 1b (Hepatitis C virus genotype 1b, UniProt P26663); experiment: HCV NS3/4A protease time-resolved fluorescence (TRF) assay, Ki against genotype 1b; assay type: biochemical
Procedure, shortened: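 Enzyme was pre-incubated 30 min with inhibitor in HEPES pH 7.5 buffer (150 mM NaCl, 15% glycerol, 10 mM DTT). Reaction ran 2.5 h at room temperature with 25 nM europium TRF peptide substrate, read at ex 340/em 615 nm. Enzyme levels: 0.2 nM (1b), 0.4 nM (A156T), 0.025 nM (3a). Ki came from four-parameter IC50 via IC50=Ki(1+[S]/KM).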

[2] = system: HCV genotype 1b replicon; experiment: HCV replicon assay, genotype 1b replicon EC50; assay type: cell-based, Hepatitis C virus; details: read-out: EC50 [gt-1b]
Procedure, shortened: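 Cells harbouring a stable replicon are grown under G418 selection, then plated with test compound in G418-free medium for 24-48 hours. After washing and lysis, RNA or luciferase signal is measured and expressed as percent of DMSO control to give EC50.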

[3] = IC50 [gt-1b] (nM), NS3/4A genotype 1b, enzyme 0.2 nM
[4] = Hepatitis C virus, genotype 1b replicon
[5] = IC50 [gt-1b], NS3/4A protease TRF assay, genotype 1b enzyme 0.2 nM
[6] = IC50 [gt-1b] (nM), NS3/4A genotype 1b, enzyme 0.2 nM, K+ salt
[7] = Hepatitis C virus, genotype 1b replicon, K+ salt
[8] = Hepatitis C virus, HCV replicon, genotype 1b

Structure (SMILES): CC[C@@H](C)OC(=O)N[C@H]1CCCCC/C=C\[C@@H]2C[C@@]2(C(=O)NS(=O)(=O)C2(C)CC2)NC(=O)[C@@H]2C[C@]3(CCc4c(c(C(F)F)nc5ccc(OC)cc45)O3)CN2C1=O [Example 445, (2R)-butan-2-yl [(2R,6S,12Z,13aS,14aR,16aS)-5′-(difluoromethyl)-9′-methoxy-14a-{[(1-methylcyclopropyl)sulfonyl]carbamoyl}-5,16-dioxo-1,1′,2′,5,6,7,8,9,10,11,13a,14,14a,15,16,16a-hexadecahydrospiro[cyclopropa[e]pyrrolo[1,2-a][1,4]diazacyclopentadecine-2,3′-pyrano[2,3-c]quinolin]-6-yl]carbamate]
- IC50 ([1]; IC50 [gt-1b], NS3/4A protease TRF assay, genotype 1b enzyme 0.2 nM, K+ salt): 0.014 nM
- EC50 ([2]; Hepatitis C virus, HCV replicon, genotype 1b, K+ salt): 1.14 nM

Structure (SMILES): Cc1nc2ccc(OC(F)(F)F)cc2c2c1O[C@]1(CC2)C[C@H]2C(=O)N[C@]3(C(=O)NS(=O)(=O)C4(C)CC4)C[C@H]3/C=C\CCCCC[C@H](NC(=O)OCC3CCCC3)C(=O)N2C1 [Example 146, cyclopentylmethyl [(2R,6S,12Z,13aS,14aR,16aS)-5′-methyl-14a-{[(1-methylcyclopropyl)sulfonyl]carbamoyl}-5,16-dioxo-9′-(trifluoromethoxy)-1,1′,2′,5,6,7,8,9,10,11,13a,14,14a,15,16,16a-hexadecahydrospiro[cyclopropa[e]pyrrolo[1,2-a][1,4]diazacyclopentadecine-2,3′-pyrano[2,3-c]quinolin]-6-yl]carbamate]
- IC50 [1, 3]: 0.03 nM
- EC50 [2, 4]: 11.8 nM

Structure (SMILES): Cc1nc2ccc(OC(F)(F)F)cc2c2c1O[C@]1(CC2)C[C@H]2C(=O)N[C@]3(C(=O)NS(=O)(=O)C4(C)CC4)C[C@H]3/C=C\CCCCC[C@H](NC(=O)OCC3COC3)C(=O)N2C1 [Example 177, oxetan-3-ylmethyl [(2R,6S,12Z,13aS,14aR,16aS)-5′-methyl-14a-{[(1-methylcyclopropyl)sulfonyl]carbamoyl}-5,16-dioxo-9′-(trifluoromethoxy)-1,1′,2′,5,6,7,8,9,10,11,13a,14,14a,15,16,16a-hexadecahydrospiro[cyclopropa[e]pyrrolo[1,2-a][1,4]diazacyclopentadecine-2,3′-pyrano[2,3-c]quinolin]-6-yl]carbamate]
- IC50 [1, 3]: 0.011 nM
- EC50 [2, 4]: 21.9 nM

Structure (SMILES): COc1ccc2nc(C)c3c(c2c1)CC[C@]1(C[C@H]2C(=O)N[C@]4(C(=O)NS(=O)(=O)C5(C)CC5)C[C@H]4/C=C\CCCCC[C@H](NC(=O)OC(C(C)(C)C)C(F)(F)F)C(=O)N2C1)O3 (stereo partly drawn) [Example 367, 1,1,1-trifluoro-3,3-dimethylbutan-2-yl [(2R,6S,12Z,13aS,14aR,16aS)-9′-methoxy-5′-methyl-14a-{[(1-methylcyclopropyl)sulfonyl]carbamoyl}-5,16-dioxo-1,1′,2′,5,6,7,8,9,10,11,13a,14,14a,15,16,16a-hexadecahydrospiro[cyclopropa[e]pyrrolo[1,2-a][1,4]diazacyclopentadecine-2,3′-pyrano[2,3-c]quinolin]-6-yl]carbamate]
- IC50 [1, 5]: 0.03 nM
- EC50 ([2]; HCV replicon, genotype 1b): 3.61 nM

Structure (SMILES): CC1(S(=O)(=O)NC(=O)[C@@]23C[C@H]2/C=C\CCCCC[C@H](NC(=O)OC2CCCC2)C(=O)N2C[C@@]4(CCc5c(c(C(F)(F)F)nc6ccccc56)O4)C[C@H]2C(=O)N3)CC1 [Example 148, cyclopentyl [(2R,6S,12Z,13aS,14aR,16aS)-14a-{[(1-methylcyclopropyl)sulfonyl]carbamoyl}-5,16-dioxo-5′-(trifluoromethyl)-1,1′,2′,5,6,7,8,9,10,11,13a,14,14a,15,16,16a-hexadecahydrospiro[cyclopropa[e]pyrrolo[1,2-a][1,4]diazacyclopentadecine-2,3′-pyrano[2,3-c]quinolin]-6-yl]carbamate]
- IC50 [1, 6]: 0.011 nM
- EC50 [2, 7]: 0.195 nM

Structure (SMILES): Cc1nc2ccc(OC(F)F)cc2c2c1O[C@]1(CC2)C[C@H]2C(=O)N[C@]3(C(=O)NS(=O)(=O)C4(C)CC4)C[C@H]3/C=C\CCCCC[C@H](NC(=O)OC(C)(C)C(F)(F)F)C(=O)N2C1 [Example 310, 1,1,1-trifluoro-2-methylpropan-2-yl [(2R,6S,12Z,13aS,14aR,16aS)-9′-(difluoromethoxy)-5′-methyl-14a-{[(1-methylcyclopropyl)sulfonyl]carbamoyl}-5,16-dioxo-1,1′,2′,5,6,7,8,9,10,11,13a,14,14a,15,16,16a-hexadecahydrospiro[cyclopropa[e]pyrrolo[1,2-a][1,4]diazacyclopentadecine-2,3′-pyrano[2,3-c]quinolin]-6-yl]carbamate]
- IC50 [1, 6]: 0.008 nM
- EC50 [2, 7]: 5.66 nM

Structure (SMILES): Cc1nc2ccccc2c2c1O[C@]1(CC2)C[C@H]2C(=O)N[C@]3(C(=O)NS(=O)(=O)C4(C)CC4)C[C@H]3/C=C\CCCCC[C@H](NC(=O)N(C)C)C(=O)N2C1 [Example 228, (2R,6S,12Z,13aS,14aR,16aS)-6-[(dimethylcarbamoyl)amino]-5′-methyl-N-[(1-methylcyclopropyl)sulfonyl]-5,16-dioxo-1,1′,2′,6,7,8,9,10,11,13a,14,15,16,16a-tetradecahydrospiro[cyclopropa[e]pyrrolo[1,2-a][1,4]diazacyclopentadecine-2,3′-pyrano[2,3-c]quinoline]-14a(5H)-carboxamide]
- IC50 [1, 3]: 0.025 nM
- EC50 [2, 4]: 6.63 nM

Structure (SMILES): COc1ccc2nc(C)c3c(c2n1)CC[C@]1(C[C@H]2C(=O)N[C@]4(C(=O)NS(=O)(=O)C5(C)CC5)C[C@H]4/C=C\CCCCC[C@H](NC(=O)OC4(C)CC4)C(=O)N2C1)O3 [Example 364, 1-methylcyclopropyl [(2R,6S,12Z,13aS,14aR,16aS)-2′-methoxy-6′-methyl-14a-{[(1-methylcyclopropyl)sulfonyl]carbamoyl}-5,16-dioxo-1,5,6,7,8,9,9′,10,10′,11,13a,14,14a,15,16,16a-hexadecahydrospiro[cyclopropa[e]pyrrolo[1,2-a][1,4]diazacyclopentadecine-2,8′-pyrano[2,3-c][1,5]naphthyridin]-6-yl]carbamate]
- IC50 [1, 5]: 0.012 nM
- EC50 [2, 8]: 5.46 nM

Structure (SMILES): Cc1ccc2nc(C(F)(F)F)c3c(c2c1)CC[C@]1(C[C@H]2C(=O)N[C@]4(C(=O)NS(=O)(=O)C5(C)CC5)C[C@H]4/C=C\CCCCC[C@H](NC(=O)OCC(C)C)C(=O)N2C1)O3 [Example 390, 2-methylpropyl [(2R,6S,12Z,13aS,14aR,16aS)-9′-methyl-14a-{[(1-methylcyclopropyl)sulfonyl]carbamoyl}-5,16-dioxo-5′-(trifluoromethyl)-1,1′,2′,5,6,7,8,9,10,11,13a,14,14a,15,16,16a-hexadecahydrospiro[cyclopropa[e]pyrrolo[1,2-a][1,4]diazacyclopentadecine-2,3′-pyrano[2,3-c]quinolin]-6-yl]carbamate]
- IC50 [1, 5]: 0.015 nM
- EC50 [2, 8]: 15.5 nM

Structure (SMILES): Cc1nc2cc(Cl)ccc2c2c1O[C@]1(CC2)C[C@H]2C(=O)N[C@]3(C(=O)NS(=O)(=O)C4(C)CC4)C[C@H]3/C=C\CCCCC[C@H](NC(=O)OCC(C)(C)C)C(=O)N2C1 [Example 235, 2,2-dimethylpropyl [(2R,6S,12Z,13aS,14aR,16aS)-8′-chloro-5′-methyl-14a-{[(1-methylcyclopropyl)sulfonyl]carbamoyl}-5,16-dioxo-1,1′,2′,5,6,7,8,9,10,11,13a,14,14a,15,16,16a-hexadecahydrospiro[cyclopropa[e]pyrrolo[1,2-a][1,4]diazacyclopentadecine-2,3′-pyrano[2,3-c]quinolin]-6-yl]carbamate]
- IC50 [1, 6]: 0.027 nM
- EC50 [2, 7]: 4.31 nM

Structure (SMILES): CCc1ccc2nc(C)c3c(c2c1)CC[C@]1(C[C@H]2C(=O)N[C@]4(C(=O)NS(=O)(=O)C5(C)CC5)C[C@H]4/C=C\CCCCC[C@H](NC(=O)OC(C)(C)C(F)(F)F)C(=O)N2C1)O3 [Example 314, 1,1,1-trifluoro-2-methylpropan-2-yl [(2R,6S,12Z,13aS,14aR,16aS)-9′-ethyl-5′-methyl-14a-{[(1-methylcyclopropyl)sulfonyl]carbamoyl}-5,16-dioxo-1,1′,2′,5,6,7,8,9,10,11,13a,14,14a,15,16,16a-hexadecahydrospiro[cyclopropa[e]pyrrolo[1,2-a][1,4]diazacyclopentadecine-2,3′-pyrano[2,3-c]quinolin]-6-yl]carbamate]
- IC50 [1, 3]: 0.013 nM
- EC50 [2, 4]: 8.74 nM

Structure (SMILES): COc1ccc2nc(C3CC3)c3c(c2c1)CC[C@]1(C[C@H]2C(=O)N[C@]4(C(=O)NS(=O)(=O)C5(C)CC5)C[C@H]4/C=C\CCCCC[C@H](NC(=O)OC4(C)CC4)C(=O)N2C1)O3 [Example 92, 1-methylcyclopropyl [(2R,6S,12Z,13aS,14aR,16aS)-5′-cyclopropyl-9′-methoxy-14a-{[(1-methylcyclopropyl)sulfonyl]carbamoyl}-5,16-dioxo-1,1′,2′,5,6,7,8,9,10,11,13a,14,14a,15,16,16a-hexadecahydrospiro[cyclopropa[e]pyrrolo[1,2-a][1,4]diazacyclopentadecine-2,3′-pyrano[2,3-c]quinolin]-6-yl]carbamate]
- IC50 [1, 3]: 0.01 nM
- EC50 [2, 4]: 0.44 nM

Structure (SMILES): CC(C)(C)OC(=O)N[C@H]1CCCCC/C=C\[C@@H]2C[C@@]2(C(=O)O)NC(=O)[C@@H]2C[C@]3(CCc4c(cnc5ccccc45)O3)CN2C1=O [Example 101, (2R,6S,12Z,13aS,14aR,16aS)-6-[(tert-butoxycarbonyl)amino]-5,16-dioxo-1,1′,2′,6,7,8,9,10,11,13a,14,15,16,16a-tetradecahydrospiro[cyclopropa[e]pyrrolo[1,2-a][1,4]diazacyclopentadecine-2,3′-pyrano[2,3-c]quinoline]-14a(5H)-carboxylic acid]
- IC50 [1, 3]: 38.2 nM
- EC50 [2, 4]: > 100 nM
